Measurements taken from patent publication EP1750770B1, “USE OF ORGANO-SILICON COMPOUNDS FOR CO[…] TISSUES” (Exsymol, priority 2004, dated 2005).
Like-named read-outs stand apart in the source and are kept apart here.

Assays:
[1] = system: collagénase; assay: Collagenase activity in tissue extracts of the dermal polyvinyl alcohol microsponge implant zone (Test 1); type: in vivo, rats Hairless; conditions: once daily
Description: Une solution à 0,5 mg /ml de PZ-L Pro-L Leu-L Gly-L Pro-D Arg a été réalisée dans un tampon Tris-HCl (25 mM, pH 7,0; 2,5 mM de CaCl2). 0,5 ml de la solution de substrat ont été incubés à 37°C avec 200 µl d'extrait tissulaire pendant 2 h 30. A différents temps, 100 µl du milieu réactionnel ont été prélevés et ajoutés à 250 µl d'acide citrique à 0,5% (arrêt de la réaction) puis à 1,25 ml d'acétate d'éthyle. L'augmentation de densité optique (mD.O./min) et corrélée à la protéolyse du substrat a été suivie à 320 nm.
(§1) L'action quantitative et qualitative des deux composés organo-siliciés sur des rats Hairless et les altérations d'organisation de leur matrice extra-cellulaire (MEC) cutanée a été évaluée, et de manière régiosélective. En effet, un volume dermique de 0,5 cm^3 environ a été prélevé puis remplacé chirurgicalement par un dispositif médical implantable, que sont les microéponges en polyvinylalcool. Ces dernières sont usuellement utilisées pour la transplantation de cellules (Mooney D.J., J. Biomed. Mat Res(1995), vol.29, pp.959) car biocompatibles, de haute porosité et capables d'absorber 98% de leur volume.
(§2) La re-colonisation de l'implant (ou dispositif médical implantable) par le tissu dermique est alors observée sous l'effet des composés organo-siliciés. […] Les composés organo-siliciés sont administrés à raison d'une fois par jour pendant 2 mois.
(§3) L'évaluation quantitative a été réalisée via une mesure des cinétiques des marqueurs d'activité tissulaire dans la zone implantée. Les marqueurs suivis ont été des marqueurs biologiques témoignant de l'état du tissu, à savoir les enzymes "collagénase" et "élastase" qui rendent compte, avec leurs activités, du turn-over des protéines de la matrice extracellulaire, et l'enzyme "G6PDH" dont l'activité est un marqueur du niveau énergétique des cellules (équilibre redox cellulaire). L'évaluation qualitative a, elle, été réalisée avec le prélèvement chirurgical d'une partie de cet implant à différent temps de l'expérimentation. Après fixation, des coupes de 5 µm et une coloration H.E ou Trichrome-Masson ont été réalisées, ainsi qu'une analyse histologique de l'organisation du collagène de la MEC.

[2] = system: élastase; assay: Elastase activity in tissue extracts of the dermal implant zone (Test 1); type: in vivo, rats Hairless; conditions: once daily, SalSi-3OH intradermal, HyalSi-3OH topical cream
Description: Du N-succinyl-Ala-Ala-Pro-Leu p-nitroanilide en solution dans un tampon Tris-HCl (10mM pH 8) à 0,5 g/l à été incubé à 37°C avec 0,2 ml d'extrait tissulaire dans un volume final de 1,2 ml pendant 5 heures. L'augmentation de densité optique (mD.O./min) et corrélée à la protéolyse du substrat a été suivie à […].
as §1, §2, §3

[3] = system: glucose-6-phosphate déshydrogénase; assay: Glucose-6-phosphate dehydrogenase activity in tissue extracts of the dermal implant zone (Test 1); type: in vivo, rats Hairless; conditions: once daily
Description: 0,8 ml d'extrait tissulaire ont été incubés avec 20 µl de solution à 2,4 mM de NADP et à 24,4 mM de glucose 6-phosphate (G6P) en tampon phosphate (0,1M pH 7,4). L'augmentation de densité optique (mD.O./min) et corrélée à la réduction du substrat a été suivie à 340 nm à 25°C.
as §1, §2, §3

[4] = system: matrice extra-cellulaire (MEC) cutanée; assay: Qualitative evaluation: implant appearance and histological analysis of collagen organisation of the ECM (Test 1); type: in vivo, rats Hairless; conditions: once daily
Source text: as §1, §2, §3

[5] = system: rides "patte d'oie" et/ou intersourcilières; conditions: for échelle visuelle analogique, Front / échelle visuelle analogique, Pattes-d'oie: intradermal injections at J0, S1, S2, rated by volunteers; for amélioration du relief cutané: all injected sites
Source text: Les données obtenues à partir de l'échelle visuelle analogique ont fait l'objet d'une analyse de variance en mesures répétées sur le temps, suivie d'une analyse des contrastes.

[6] = immediately after the injection
[7] = week 1 post-implantation, SalSi-3OH 0,5% solution 0,2 ml intradermal, HyalSi-3OH 0,5% cream 100 mg topical

hyaluronate de monométhylsilanetriol [HyalSi-3OH]
Activité collagénase [1, 7]: 3,4±0,3 mD.O./min/mg de prot.
Activité collagénase ([1]; week 2 post-implantation): 5,9±0,7 mD.O./min/mg de prot.
Activité collagénase ([1]; week 3 post-implantation): 12,0±1,3 mD.O./min/mg de prot.
Activité collagénase ([1]; week 4 post-implantation): 14,1±3,1 mD.O./min/mg de prot.
Activité collagénase ([1]; week 5 post-implantation): 7,3±1,6 mD.O./min/mg de prot.
Activité collagénase ([1]; week 8 post-implantation): 3,5±1,4 mD.O./min/mg de prot.
Activité élastase ([2]; week 1 post-implantation): 3,4±0,5 mD.O./min/mg de prot.
Activité élastase ([2]; week 2 post-implantation): 7,8±2,2 mD.O./min/mg de prot.
Activité élastase ([2]; week 3 post-implantation): 10,5±2,9 mD.O./min/mg de prot.
Activité élastase ([2]; week 4 post-implantation): 9,4±2,4 mD.O./min/mg de prot.
Activité élastase ([2]; week 5 post-implantation): 5,6±1,1 mD.O./min/mg de prot.
Activité élastase ([2]; week 8 post-implantation): 2,4±0,9 mD.O./min/mg de prot.
Activité G6DPH ([3]; week 1 post-implantation): 8,2±1,9 mD.O./min/mg de prot.
Activité G6DPH ([3]; week 2 post-implantation): 13,8±1,5 mD.O./min/mg de prot.
Activité G6DPH ([3]; week 3 post-implantation): 25,1±4,6 mD.O./min/mg de prot.
Activité G6DPH ([3]; week 4 post-implantation): 46,8±7,6 mD.O./min/mg de prot.
Activité G6DPH ([3]; week 5 post-implantation): 37,5±6,2 mD.O./min/mg de prot.
Activité G6DPH ([3]; week 8 post-implantation): 7,3±2,4 mD.O./min/mg de prot.
Aspect implant + analyse histologique ([4]; week 1 post-implantation): début colonisation cellulaire
Aspect implant + analyse histologique ([4]; week 2 post-implantation): colonisation cellulaire (70 à 90%) + début formation MEC
Aspect implant + analyse histologique ([4]; week 3 post-implantation): formation MEC avec accumulation collagène non organisé
Aspect implant + analyse histologique ([4]; week 4 post-implantation): formation MEC avec présence collagène non organisé dans 30% des espaces de l'implant + collagène organisé dans 10% de l'implant
Aspect implant + analyse histologique ([4]; week 5 post-implantation): formation MEC avec présence collagène non organisé dans l'ensemble de l'implant + collagéne organisé dans 30% de l'implant
Aspect implant + analyse histologique ([4]; week 8 post-implantation): formation MEC dans l'ensemble de l'implant + collagène organisé dans 45% de l'implant

salicylate de monométhylsilanetriol [SalSi-3OH]
Activité collagénase [1, 7]: 3,6±0,5 mD.O./min/mg de prot.
Activité collagénase ([1]; week 2 post-implantation): 6,1±0,8 mD.O./min/mg de prot.
Activité collagénase ([1]; week 3 post-implantation): 13±1,7 mD.O./min/mg de prot.
Activité collagénase ([1]; week 4 post-implantation): 11,2±0,8 mD.O./min/mg de prot.
Activité collagénase ([1]; week 5 post-implantation): 8,1±1,3 mD.O./min/mg de prot.
Activité collagénase ([1]; week 8 post-implantation): 3,9±0,5 mD.O./min/mg de prot.
Activité élastase ([2]; week 1 post-implantation): 3,0±0,6 mD.O./min/mg de prot.
Activité élastase ([2]; week 2 post-implantation): 6,8±1,3 mD.O./min/mg de prot.
Activité élastase ([2]; week 3 post-implantation): 9,5±1,3 mD.O./min/mg de prot.
Activité élastase ([2]; week 4 post-implantation): 8,4±1,6 mD.O./min/mg de prot.
Activité élastase ([2]; week 5 post-implantation): 5,1±0,9 mD.O./min/mg de prot.
Activité élastase ([2]; week 8 post-implantation): 2,0±0,3 mD.O./min/mg de prot.
Activité G6DPH ([3]; week 1 post-implantation): 7,6±1,4 mD.O./min/mg de prot.
Activité G6DPH ([3]; week 2 post-implantation): 9,3±1,1 mD.O./min/mg de prot.
Activité G6DPH ([3]; week 3 post-implantation): 18,4±2,9 mD.O./min/mg de prot.
Activité G6DPH ([3]; week 4 post-implantation): 43,7±5,5 mD.O./min/mg de prot.
Activité G6DPH ([3]; week 5 post-implantation): 36,5±4,8 mD.O./min/mg de prot.
Activité G6DPH ([3]; week 8 post-implantation): 9,0±0,45 mD.O./min/mg de prot.
Aspect implant + analyse histologique ([4]; week 1 post-implantation): début colonisation cellulaire
Aspect implant + analyse histologique ([4]; week 2 post-implantation): colonisation cellulaire (70à 90%) + début formation MEC
Aspect implant + analyse histologique ([4]; week 3 post-implantation): formation MEC avec présence collagène non organisé
Aspect implant + analyse histologique ([4]; week 4 post-implantation): formation MEC avec présence collagène non organisé dans 20% des espaces de l'implant + collagène organisé dans 20% du l'implant
Aspect implant + analyse histologique ([4]; week 5 post-implantation): formation MEC avec présence collagène non organisédans l'ensemble de l'implant + collagène organisé dans 50% de l'implant
Aspect implant + analyse histologique ([4]; week 8 post-implantation): formation MEC dans l'ensemble de l'implant + collagène organisé dans 70% de l'implant
échelle visuelle analogique, Front ([5]; S1): 18,67 ± 20,98 µm
échelle visuelle analogique, Pattes-d'oie ([5]; S1): 19,20 ± 19,14 µm
échelle visuelle analogique, Front ([5]; S2): 32,25 ± 23,23 µm
échelle visuelle analogique, Pattes-d'oie ([5]; S2): 31,23 ± 21,66 µm
échelle visuelle analogique, Front ([5]; S6): 35,33 ± 26,99 µm
échelle visuelle analogique, Pattes-d'oie ([5]; S6): 38,92 ± 25,97 µm
échelle visuelle analogique, Front ([5]; S12): 38,65 ± 25,85 µm
échelle visuelle analogique, Pattes-d'oie ([5]; S12): 41,63 ± 26,70 µm
échelle visuelle analogique, Front ([5]; S24): 39,55 ± 25,33 µm
échelle visuelle analogique, Pattes-d'oie ([5]; S24): 39,58 ± 24,89 µm
échelle visuelle analogique, Front ([5]; S36): 36,57 ± 24,55 µm
échelle visuelle analogique, Pattes-d'oie ([5]; S36): 39,52 ± 25,22 µm
échelle visuelle analogique, Front ([5]; S52): 34,58 ± 25,54 µm
échelle visuelle analogique, Pattes-d'oie ([5]; S52): 38,61 ± 26,10 µm
amélioration du relief cutané ([5]; at 6 months): se maintient
amélioration du relief cutané ([5]; at 12 months): régresse très légèrement
amélioration du relief cutané ([5]; mean, after 3 months): 40%
amélioration du relief cutané (significance) ([5]; one year after the first injection): significative sur tous les sites
effet de comblement [6]: sans effet de comblement immédiatement après l'injection
